Measurements taken from publication PMC11728977, “Crystallographic, kinetic, and calorimetric investigation of PKA interactions with L-type calcium channels and Rad GTPase” (The Journal of Biological Chemistry, 2024).
No end group written: not given here.

What was measured:
[1] = molecular target: PKAc (catalytic subunit of PKA, PKAcα 16-351) (Mus musculus, UniProt P05132); assay: ADP-Glo kinase assay, Michaelis-Menten kinetics of PKAc phosphorylation of substrates; settings: for kcat / Km / kcat/Km: ADP-Glo, 3 nM PKAc, 1 mM ATP, 5 mM Mg2+; for kcat / Km: substrate 0-256 μM, room temperature 30 min; for kcat: 50 mM Hepes pH 7.4, 150 mM KCl, mean ± SD of n = 3 or 4 biological replicates, less reliable for poor substrates; for Km: Michaelis-Menten fit; for Km / kcat/Km: mean ± SD of n = 3 or 4; for reduction in kcat/Km versus WT Ser1981 peptide: from kcat/Km of Table 2
Method: We used enzyme kinetics to investigate the activity of catalytic subunit of PKA (PKAc) toward the three target sites within the C terminus of CaV1.2. We performed discontinuous kinase assays using an ADP-GloMax Assay kit.
Kinase assays were conducted using an ADP-Glo Kinase Assay Kit (Promega). […] Therefore, we performed assays with excess ATP (1 mM) and Mg^2+ (5 mM) to saturate PKAc prior to substrate binding. Reagents were prepared as described in the kit, aliquoted, and frozen at −20 °C prior to use. Reactions were conducted in 384-well solid white polystyrene microplates (Corning). Peptide substrates and EFPreIQ were dissolved and/or diluted to 800 μM using 50 mM Hepes (pH 7.4), 150 mM KCl, 5 mM MgCl2, and 4 mM TCEP. […] For peptides lacking tryptophan, the amount of volume needed to achieve a concentration of 800 μM was calculated prior to dissolving. The peptides/substrate was 2-fold serially diluted using the same buffer to create 11 reactions per curve ranging from 0 to 256 μM. ATP was added to each reaction to achieve a final concentration of 1 mM. Reactions were initiated by the addition of thawed PKAc at a final concentration of 3 nM at a final well volume of 20 μl. After allowing reactions to occur at room temperature for 30 min, 3 × 5 ml from each reaction in a curve was taken and mixed with 5 ml ADP-Glo Reagent for a total of three technical replicates per biological replicate. After 40 min, 10 ml of kinase detection reagent was added to each technical replicate and, after waiting 60 min, relative luminescence unit were measured using a VICTOR X4 Multilabel Plate Reader (PerkinElmer).
The relative luminescence unit values were converted to specific activity values via interpolation of a standard curve that was created in accordance with the manufacturer’s protocol. The three technical replicates were averaged to calculate a biological replicate value and plotted against peptide concentration using GraphPad 9 (Prism) software (https://www.graphpad.com/updates/prism-900-release-notes). Technical replicate values resulting from experimental error were removed from the dataset and subsequent averaging. […] The Michaelis–Menten kinetics fitting function was used to generate a nonlinear regression to calculate both a Km constant and Vmax value for each biological replicate curve. These Km constant and Vmax values were averaged and SDs are reported. Figures displaying data points and Michaelis–Menten curves depict the average specific activity values calculated from all biological replicates in the three or four experiments (n = 3 or n = 4) per peptide (n = 4 for Ser1981 and Ser272 peptides, n = 3 for all others).
PKAc:AMP-PNP = molecular target: T1, PKAc:AMP-PNP (Mus musculus, UniProt P05132); assay: Isothermal titration calorimetry of substrates binding to PKAc:AMP-PNP
T1 construct: 6xHis (N, cleaved yes); made in house; host or cells: Escherichia coli Rosetta (DE3)pLysS
Method: As an independent means to assess which substrate peptides are preferred by PKAc, we used ITC to determine the inherent affinities for the various peptides. ITC also provides the enthalpy and entropy changes upon binding and can thus help provide a rationale for different affinities. The ITC experiments were performed using excess Mg^2+ (5 mM) and 0.5 mM adenylyl-imidodiphosphate (AMP)-PNP (a nonhydrolyzable ATP analog) (Fig. 2).
ITC experiments were conducted using a MicroCal iTC200 (GE Healthcare, now Malvern) instrument. The ITC/assay buffer was used to dissolve peptides to a concentration of 1.25 to 4.3 mM. Substrate concentrations were optimized and chosen based on how much was needed to achieve sufficient signal to noise ratio. Rad Ser25 peptide contained a tryptophan residue, which allowed us to determine its concentration via 280 nm absorbance readings using an extinction coefficient of 5500 M^−1 cm^−1. For peptides lacking a tryptophan or tyrosine residue (Ser1981 WT and mutant peptides, Ser1718 peptide, Ser272 peptide, and Ser300 peptide), the amount of volume needed to achieve the desired concentration was calculated prior to diluting. Peptides were received as powder in 1 mg aliquots and using molecular weights of the peptide, the number of moles in each aliquot was determined. The number of moles was used to determine how much volume was required to achieve the desired concentration. AMP-PNP (Millipore Sigma) was dissolved in ITC/Assay buffer to a concentration of 100 mM, aliquoted in 20 μl volumes, and stored at −70 °C. Prior to each run, both titrant and titrand solutions were supplemented with AMP-PNP to a final concentration of 500 μM. The titration experiments were conducted at 4 °C with a stirring speed of 500 RPM. Each titration experiment was comprised of 20 injections with 230 s in between each injection. Each injection totalled 2.0 μl over 4 s except the first injection being 0.4 μl over 0.8 s. Background runs of peptide/substrate into ITC/assay buffer were conducted to generate a linear regression using the isotherm to subtract background heats from experimental runs. Peptides displaying large background heats were dialyzed in ITC/assay buffer for 60 min to remove contaminants remaining from peptide synthesis. The peptide into PKAc runs (experimental runs) utilized the same settings. The data was processed using Origin (Version 7.0, OriginLab) software (https://www.originlab.com/origin).

[2] = ITC, 4 °C, 0.5 mM AMP-PNP, 5 mM MgCl2, mean ± SD, n = 3
[3] = 4 °C, 0.5 mM AMP-PNP, 5 mM MgCl2

| Substance | kcat [1] [s⁻¹] | binding to PKAc detected by ITC (PKAc:AMP-PNP; [3]) | also measured |
| --- | --- | --- | --- |
| LRRASLG [Kemptide, reference compound] | 19.0 ± 1.5 |  | Km [1]: 42.6 ± 2.4 µM; kcat/Km [1]: 470000 ± 50000 M⁻¹ s⁻¹ |
| RGFLRSARLGRRASFHL [S1975R peptide, CaV1.2 S1981 peptide mutant S1975R] | 7.5 ± 0.9 |  | Km [1]: 6.2 ± 2.7 µM; kcat/Km [1]: 1.2e+06 ± 500000 M⁻¹ s⁻¹; reduction in kcat/Km versus WT Ser1981 peptide [1]: 37%; ΔG (PKAc:AMP-PNP; [2]): -5.11 ± 2.2 kcal/mol; −TΔS (PKAc:AMP-PNP; [2]): -8.6 ± 2.2 kcal/mol; reduction in affinity for PKAc versus WT Ser1981 peptide (PKAc:AMP-PNP; ITC, from KD of Table 3): more than 15 fold |
| RGFLRSASLGRAASFHL [R1979A peptide, CaV1.2 S1981 peptide mutant R1979A] | 1.1 ± 0.1 | no longer detect any interaction | enzymatic activity of PKAc toward the peptide ([1]; ADP-Glo kinase assay): very low |
| RGFLRSASLGRRASAHL [F1982A peptide] |  |  | reduction in kcat/Km versus WT Ser1981 peptide [1]: ~26% |
| RTLHDIGPEIRRAISGDL [S1718 peptide, synthetic peptide, human CaV1.2 residues 1704–1721 containing Ser1718] | 3.4 ± 1.3 | could not detect any heat signals indicative of binding |  |
| SNADYLTRDWSILG… [EFPreIQ (S1535), recombinant human CaV1.3 residues 1468–1598 (EF-hand and PreIQ domain) mimicking the CaV1.2 Ser1535 site] | 1.3 ± 0.2 | could not detect any heat signals indicative of binding |  |
| SRKMAFRAKSKSCHD [Rad S300 peptide, Rad-derived peptide, residues 289–303 containing Ser300] | 3.3 ± 1.4 | not |  |
| WGPAPPLHRRSMP [Rad S38 peptide, Rad-derived peptide, residues 28–40 containing Ser38] | 2 ± 1.9 | not | kcat ([1]; listed as Ser38): 2.0 ± 1.9 s⁻¹ |
